For data set [1], the system named is Streptococcus sp. 'group A'. The experiment in a line: Streptococcus pyogenes SK(-)GAS viability under kanamycin – luminescence, BacTiterGlo, confirmation, counter-screen for streptokinase expression inhibitor project, dose response (AID 1900). The format is functional, organism-based.
A further data set deals with T1, Streptokinase A (Streptococcus pyogenes serotype M1, UniProt P10520).
T1 sequence (P10520 whole entry): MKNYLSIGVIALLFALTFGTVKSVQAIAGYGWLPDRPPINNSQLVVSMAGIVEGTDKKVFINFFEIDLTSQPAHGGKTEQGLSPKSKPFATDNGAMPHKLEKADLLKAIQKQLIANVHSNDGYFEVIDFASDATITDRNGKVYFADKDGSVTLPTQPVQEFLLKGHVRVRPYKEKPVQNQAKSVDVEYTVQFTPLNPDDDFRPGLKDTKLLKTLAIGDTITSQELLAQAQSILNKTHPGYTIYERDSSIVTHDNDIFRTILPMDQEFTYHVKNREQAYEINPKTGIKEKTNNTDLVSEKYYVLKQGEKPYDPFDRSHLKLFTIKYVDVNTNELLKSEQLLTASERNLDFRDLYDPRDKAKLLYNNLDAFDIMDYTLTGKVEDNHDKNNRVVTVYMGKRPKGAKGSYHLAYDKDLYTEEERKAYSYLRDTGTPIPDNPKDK
The experiment in a line: viability-normalized secreted streptokinase activity reduction – plasminogen activation absorbance, OD405, dose response (AID 1914).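 Further: secreted streptokinase activity via plasminogen activation per viability signal from cell pellet.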 The format is functional, Streptococcus pyogenes M1 GAS.

In the next data set the test system is Streptococcus. In words: GAS UMAA2166 growth inhibition – luminescence, BacTiterGlo, counter-screen for streptokinase expression inhibitor project, dose response (AID 1915).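 Further: potency for reduction of bacterial viability or growth.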 The format is functional, organism-based.
A short description of data set [2]: Trypanosoma cruzi growth suppression in host cells – NIH3T3 host cells, beta-gal luminescence, confirmation (AID 2044).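 Further: intracellular parasites grown in NIH/3T3 mouse fibroblasts as host cells; luminescent beta-galactosidase reporter signal from transgenic T. cruzi replicating inside host cells; inhibitors lower the luminescence signal.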 It counts as functional, cell-based.
The nature of data set [3]: NIH3T3 cell viability loss – ATP luminescence, mouse fibroblasts, counter-screen, dose response (AID 2010).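 Further: cells exposed to compound for about 90 hours before reading.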 It counts as functional, cell-based.
A further data set addresses Cytochrome P450 2C19 (Homo sapiens, UniProt P33261). In words: Cytochrome panel assay with activity outcomes. Panel member name: p450-cyp2c19 Compounds with AC50 equal or less than 10 uM are considered active. It counts as functional.

The source made the active and inactive calls. Some results are limits rather than exact numbers.

Chain of Cytochrome P450 2C19 (P33261 whole entry): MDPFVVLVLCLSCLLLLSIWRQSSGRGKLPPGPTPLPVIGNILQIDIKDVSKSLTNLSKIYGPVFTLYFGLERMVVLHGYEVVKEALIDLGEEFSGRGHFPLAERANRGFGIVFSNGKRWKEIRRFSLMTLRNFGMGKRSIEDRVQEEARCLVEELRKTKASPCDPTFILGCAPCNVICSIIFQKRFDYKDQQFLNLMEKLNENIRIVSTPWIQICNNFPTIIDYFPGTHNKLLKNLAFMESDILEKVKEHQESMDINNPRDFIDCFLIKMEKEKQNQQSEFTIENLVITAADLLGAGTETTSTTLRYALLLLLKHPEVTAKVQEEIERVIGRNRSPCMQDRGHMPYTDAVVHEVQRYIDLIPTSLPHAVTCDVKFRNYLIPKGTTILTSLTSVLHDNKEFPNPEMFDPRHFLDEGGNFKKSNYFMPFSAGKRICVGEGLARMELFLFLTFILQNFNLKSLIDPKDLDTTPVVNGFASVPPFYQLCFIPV

Take `Cc1cccc(OCC(=O)Nc2ccc(C(=O)Nc3ccccc3C(=O)O)cc2)c1C`: the figures for the EC50 (in data set [1]; on Streptokinase A; in the data set with Streptococcus) were 6.06 µM (active), > 150 µM (not active) and > 150 µM (not active), respectively.
As to `O=C(NCc1ccccc1)C(=O)Nc1nc(-c2ccccc2)cs1`, the EC50 in data set [1] is 5.38 µM (active); on Streptokinase A, > 150 µM (not active); in the data set on Streptococcus it was 14.1 µM (active).
As for `Cc1ccccc1-c1cc(-c2ccccc2O)n[nH]1`, the EC50 at Streptokinase A was 66.2 µM (inconclusive).
Turning to `CN(C)CCCN(C(=O)CCc1ccccc1)c1nc2c(F)cccc2s1`, the EC50 in data set [2] is 0.819 µM (active); in data set [3], > 30 µM (not active).
With `CCn1ccnc1CN1CCc2c([nH]c3ccccc23)C1C1CCCCC1` (stereo not given), the concentration giving a half-maximal response (EC50) in data set [1] was 5.53 µM (active); on Streptokinase A, 42.1 µM (active); with Streptococcus, 29.3 µM (active).
For `CN(C)c1ccc(/C=C/c2c([N+](=O)[O-])c(=O)n(C)c(=O)n2C)cc1` the same measures were 5.75 µM (active), > 150 µM (not active) and 18.3 µM (active).
Turning to `Cc1c(Br)c([N+](=O)[O-])nn1CC(=O)NCc1ccccn1`, on Cytochrome P450 2C19, the AC50 entry is “inconclusive”.
`O=C(c1cc(-c2ccccc2)nc2ccccc12)N1CCN(c2ccccc2O)CC1`: the figures for the EC50 (in data set [1]; at Streptokinase A; with Streptococcus) were 23.8 µM (active), 61.5 µM (active) and 61.7 µM (active), respectively.
Consider `O=C(O)CCCCCCCCc1cn(Cc2ccc(C(=O)c3ccccc3)cc2)nn1`, for which the EC50 is > 60 µM (not active) in data set [2] and 6.22 µM (active) in data set [3].
As to `COc1cc(CN2CCCC(C(=O)c3ccccc3SC)C2)cc(OC)c1` (stereo not given), the concentration for a half-maximal effect (EC50) in data set [2] is 0.557 µM (active); in data set [3] it was > 60 µM (not active).
As for `CCOC(=O)C1CN(S(=O)(=O)c2cccc(C(F)(F)F)c2)c2cc(CC(=O)OC)ccc2O1` (stereo not given), on Cytochrome P450 2C19 (read-out: AC50), the AC50 was 0.282 µM (inconclusive).
Still for that read-out and setting: with `COc1ccc(C(C(=O)NC(C)(C)C)N(C(=O)CNC(=O)c2cccs2)c2ccc(C)cc2)cc1OC` (stereo not given) the figure was 17.8 µM (inconclusive).
Still for that read-out and setting: with `CCCc1nnc(NC(=O)Cn2cnc3ccccc3c2=O)s1` the figure was 25.1 µM (inconclusive).
With `CO[C@@H]1COC(=O)[C@H]2CCCN2C(=O)C/C=C\[C@@H](C)[C@H](OC)COC(=O)[C@H]2CCCN2C(=O)C/C=C\[C@H]1C`, the AC50 result on Cytochrome P450 2C19 was “inconclusive”.
In the case of `Cc1ccccc1-c1cc(-c2ccccc2O)[nH]n1`, the EC50 in data set [1] is 9.25 µM (active); with Streptococcus, > 150 µM (not active).
For `CC(C)Cn1c(=O)c(C(=O)N/N=C/c2cccc(F)c2)c(O)c2ccccc21` the same measures were 1.28 µM (active) and 3.69 µM (active).
In the case of `Cc1ccc(Cn2c(O)c(N=NC(S)=Nc3ccccc3F)c3ccccc32)cc1`, the EC50 in data set [2] was 0.886 µM (active); in data set [3], 17.4 µM (active).
As for `Cc1cccc(OCCCCc2c(C)n[nH]c2C)c1C`, the values for the EC50 (in data set [1]; in the data set on Streptococcus) were 6.66 µM (active) and 17 µM (active), respectively.
Consider `CCN(CC)CCN(C(=O)CCS(=O)(=O)c1ccccc1)c1nc2cc3c(cc2s1)OCO3`, for which the EC50 in data set [2] was 0.794 µM (active); in data set [3], > 60 µM (not active).
In the same order, the values of `Cc1ccc(C)c(NC(=S)N2CCC(c3nc4ccccc4s3)CC2)c1` are 3.67 µM (active) and > 30 µM (not active).
As for `Cc1ccc(NC(=O)CCC(=O)NNS(=O)(=O)c2ccccc2)c(C)c1`, the AC50 on Cytochrome P450 2C19 (read-out: AC50) is 17.8 µM (inconclusive).
For `N#Cc1c(N2CCOCC2)nc(N2CCCCC2)c2c1CCN(C1CCCCC1)C2`, the EC50 in data set [2] is 0.251 µM (active); in data set [3] it was > 30 µM (not active).
In the same order, the values of `CCOc1ccc(NC(=O)CC2C(=O)N(C)C(=S)N2CCCc2ccccc2)cc1` (stereo not given) are 2.4 µM (active) and > 60 µM (not active).
Consider `C/N=C(N)/N=C(\N)Nc1cc2ccccc2c2ccccc12`, for which the AC50 on Cytochrome P450 2C19 (read-out: AC50) was 3.98 µM (inconclusive).
